Reference: ChEMBL document CHEMBL3227956 (J Med Chem, 1979)

How the values were obtained:
Mus musculus [1] = test: Toxicity in mouse allografted with mouse L1210 cells assessed as survival rate at 500 mg/kg, ip administered on day 1 measured on day 30 relative to control; type: organism-based; design: dose 500 mg/kg, route intraperitoneal; details: in vivo
L1210 [2] = test: Antitumor activity against mouse L1210 cells allografted in mouse assessed as increase in survival rate at 500 mg/kg, ip administered on day 1 measured on day 30 relative to control; type: functional; details: route intraperitoneal
L1210 [3] = test: Antitumor activity against mouse L1210 cells allografted in mouse assessed as increase in survival rate at 62.5 mg/kg, ip administered on day 1 measured on day 30 relative to control; type: functional; details: route intraperitoneal
[4] = Hydrolytic stability in CDCl3 assessed as formation of 3-ammonio-2-bromopropyl phenylphosphonate measured within 2 hrs by NMR analysis; type: physicochemical
[5] = Hydrolytic stability in deuteriochloroform; type: physicochemical
[6] = Hydrolytic stability in D2O/Me2SO-d6 assessed as formation of 3-ammonio-2-bromopropyl phenylphosphonate at 37 degC after 24 hrs by NMR analysis; type: physicochemical
L1210 [7] = test: Antitumor activity against mouse L1210 cells allografted in mouse assessed as increase in survival rate at 150 mg/kg, ip administered on day 1 measured on day 30 relative to control; type: functional; details: route intraperitoneal
Mus musculus [8] = test: Toxicity in mouse allografted with mouse L1210 cells assessed as survival rate at 150 mg/kg, ip administered on day 1 measured on day 30 relative to control; type: organism-based; design: dose 150 mg/kg, route intraperitoneal; details: in vivo
[9] = Toxicity in mouse allografted with mouse ADJ/PC6 cells
W256 [10] = test: Cytotoxicity against rat Walker 256 cells assessed as growth inhibition in presence of microsomal activation; details: W256, read-out: ID50
W256 [11] = test: Cytotoxicity against rat Walker 256 cells assessed as growth inhibition in absence of microsomal activation; details: W256, read-out: ID50
ADJ/PC6 = test: Antitumor activity against mouse ADJ/PC6 cells allografted in mouse
[12] = Therapeutic index, ratio of LD50 for mouse allografted with mouse ADJ/PC6 cells to ED90 for mouse ADJ/PC6 cells allografted in mouse
Mus musculus [13] = test: Toxicity in mouse allografted with mouse L1210 cells assessed as survival rate at 250 mg/kg, ip administered on day 1 measured on day 30 relative to control; type: organism-based; design: dose 250 mg/kg, route intraperitoneal; details: in vivo
Mus musculus [14] = test: Toxicity in mouse allografted with mouse L1210 cells assessed as survival rate at 62.5 mg/kg, ip administered on day 1 measured on day 30 relative to control; type: organism-based; design: dose 62.5 mg/kg, route intraperitoneal; details: in vivo

Question: Which results are given for `O=P12OCCCN1CCN2CCCl` (stereo not drawn)?
Answer: Activity (Mus musculus [1]): Non-toxic; T/C (L1210 [2]): 105%

Question: Which T/C (L1210 [3]) does the source give for `O=P1(N2CC2)OCCCN1CCCl` (stereo not drawn) here?
Answer: Its T/C is 110%.

Question: Which results are given for `O=P1(c2ccccc2)NCC(Br)CO1` (stereo not drawn)?
Answer: Stability [4]: Unstable; Stability [5]: Stable; Stability [6]: Unstable

Question: With `O=P1(Oc2ccccc2)NCC(Br)CO1` (stereo not drawn) as the compound, how does the Stability [6] read?
Answer: The Stability was “Stable”.

Question: Which T/C (L1210 [7]) does the source give for `[O-][P@@+]1(Oc2ccccc2)NC[C@H](Br)CO1` (racemic) here?
Answer: Its T/C is 113%.

Question: And the Activity (Mus musculus [8])?
Answer: The Activity was “Non-toxic”.

Question: Which results are given for `O=P1(N(CCCl)CCCl)NCCCO1` (racemic) [CYCLOPHOSPHAMIDE ANHYDROUS]?
Answer: LD50 [9]: 450 mg/kg; IC50 (W256 [10]): 0.5 µg/mL; IC50 (W256 [11]): > 500 µg/mL; ED90 (ADJ/PC6): 4.75 mg/kg; selectivity ratio [12]: 95; Activity (Mus musculus [13]): Non-toxic

Question: With `[O-][P@@+]1(c2ccccc2)NC[C@@H](Br)CO1` (single isomer, unassigned; fast eluting) as the compound, how does the Activity (Mus musculus [13]) read?
Answer: Its Activity is “Non-toxic”.

Question: Which Activity (Mus musculus [14]) does the source give for `[O-][P@@+]1(Oc2ccccc2)NC[C@@H](Br)CO1` (single isomer, unassigned; fast eluting) here?
Answer: Its Activity is “Non-toxic”.

Question: What about the T/C (L1210 [3]) of the same compound?
Answer: Its T/C is 107%.
